Data from patent publication US20250230147A1, “LACTAMS AS CBL-B INHIBITORS” (Genentech, Inc., priority 2021, published 2025).

Columns and labels:
Cbl-b = Cbl-b (Homo sapiens (Human), UniProt Q13191); test: Cbl-b LCK Ub TR-FRET assay (Cbl-b Lck HTRF); format: biochemical
Summary of the method: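 TR-FRET (340 nm excitation, 615/665 nm emission) read after adding HA-ubiquitin–UBE2D2 thioester, anti-HA-D2 and streptavidin-Eu. Beforehand, compounds incubated 60 min with biotinylated Cbl-b, then 90 min with His-LCK and ATP (1 mM in 2× mix); IC50 from 10 concentrations, DMSO high and no-LCK low controls.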

c-Cbl = c-Cbl (Homo sapiens (Human), UniProt P22681); test: C-Cbl LCK Ub TR-FRET assay (c-cbl Lck HTRF); format: biochemical; details: for (fold-selectivity): C-cbl Lck HTRF IC50 relative to Cbl-b Lck HTRF IC50
Sequence of c-Cbl (P22681 47-435): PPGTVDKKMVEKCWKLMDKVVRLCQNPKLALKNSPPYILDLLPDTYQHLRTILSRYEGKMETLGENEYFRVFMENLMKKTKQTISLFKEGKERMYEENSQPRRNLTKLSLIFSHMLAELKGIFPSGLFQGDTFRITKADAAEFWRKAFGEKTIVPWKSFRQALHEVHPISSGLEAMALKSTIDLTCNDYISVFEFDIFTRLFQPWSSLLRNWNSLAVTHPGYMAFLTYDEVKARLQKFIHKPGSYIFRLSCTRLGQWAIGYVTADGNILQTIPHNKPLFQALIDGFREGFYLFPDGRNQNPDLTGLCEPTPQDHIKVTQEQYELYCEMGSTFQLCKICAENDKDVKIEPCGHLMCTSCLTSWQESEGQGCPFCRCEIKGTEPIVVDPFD
Summary of the method: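 Detection reagents added, brief spin, 20 min RT. IC50 fit normalized to no-LCK (low) and DMSO (high) controls.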

Sequence of Cbl-b (Q13191 40-426): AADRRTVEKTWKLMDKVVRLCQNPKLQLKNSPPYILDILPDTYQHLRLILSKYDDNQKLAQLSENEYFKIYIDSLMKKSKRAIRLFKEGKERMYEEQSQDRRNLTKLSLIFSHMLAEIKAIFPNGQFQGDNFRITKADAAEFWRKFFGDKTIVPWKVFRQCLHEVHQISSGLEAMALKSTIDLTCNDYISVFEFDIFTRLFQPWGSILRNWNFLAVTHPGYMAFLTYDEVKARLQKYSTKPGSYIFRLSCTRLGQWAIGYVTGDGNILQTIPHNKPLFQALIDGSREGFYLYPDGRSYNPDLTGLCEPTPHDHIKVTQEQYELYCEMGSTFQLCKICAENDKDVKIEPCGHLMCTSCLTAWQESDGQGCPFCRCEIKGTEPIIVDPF

Cn1cnnc1[C@H](F)C1(c2cccc(N3Cc4c(cc(CN5CC(CCO)C5)cc4C(F)(F)F)C3=O)c2)COC1 [Compound 177, (R)-2-(3-(3-(fluoro(4-methyl-4H-1,2,4-triazol-3-yl)methyl)oxetan-3-yl)phenyl)-6-((3-(2-hydroxyethyl)azetidin-1-yl)methyl)-4-(trifluoromethyl)isoindolin-1-one]
IC50 (Cbl-b): 41 nM
IC50 (c-Cbl): 91 nM
(fold-selectivity) (c-Cbl): 2.2x

Cn1cnnc1[C@H](F)C1(c2cccc(N3Cc4c(cc(CN5CCC(F)(CO)CC5)cc4C(F)(F)F)C3=O)c2)COC1 [Compound 133, (R)-2-(3-(3-(fluoro(4-methyl-4H-1,2,4-triazol-3-yl)methyl)oxetan-3-yl)phenyl)-6-((4-fluoro-4-(hydroxymethyl)piperidin-1-yl)methyl)-4-(trifluoromethyl)isoindolin-1-one]
IC50 (Cbl-b): 90 nM
IC50 (c-Cbl): 170 nM
(fold-selectivity) (c-Cbl): 1.9x

CCCNCc1cc2c(c(C(F)(F)F)c1)CN(c1cccc(C3([C@@H](F)c4nncn4C)CC(F)(F)C3)c1)C2=O [Compound 445, (R)-2-(3-(3,3-difluoro-1-(fluoro(4-methyl-4H-1,2,4-triazol-3-yl)methyl)cyclobutyl)phenyl)-6-((propylamino)methyl)-4-(trifluoromethyl)isoindolin-1-one]
IC50 (Cbl-b): 26 nM
IC50 (c-Cbl): 33 nM
(fold-selectivity) (c-Cbl): (1.3x)

Cn1cnnc1CC1(c2cc(NC3CCCC3)nc(N3Cc4c(cccc4C(F)(F)F)C3=O)c2)CCC1 [Compound 296, 2-(6-(cyclopentylamino)-4-(1-((4-methyl-4H-1,2,4-triazol-3-yl)methyl)cyclobutyl)pyridin-2-yl)-4-(trifluoromethyl)isoindolin-1-one]
IC50 (Cbl-b): 440 nM
IC50 (c-Cbl): 2500 nM
(fold-selectivity) (c-Cbl): (5.7x)

CCNc1cc(N2Cc3c(cc(CNC4(C)CCC4)cc3C(F)(F)F)C2=O)cc(C2(Cc3nncn3C)CCC2)c1 [Compound 463, 2-(3-(ethylamino)-5-(1-((4-methyl-4H-1,2,4-triazol-3-yl)methyl)cyclobutyl)phenyl)-6-(((1-methylcyclobutyl)amino)methyl)-4-(trifluoromethyl)isoindolin-1-one]
IC50 (Cbl-b): 6 nM
IC50 (c-Cbl): 3.5 nM
(fold-selectivity) (c-Cbl): (0.55x)

Cn1cnnc1CC1(c2cc(C3CC3)cc(N3Cc4c(cc(CNC5(C)CCC5)cc4C(F)(F)F)C3=O)c2)COC1 [Compound 472, 2-(3-cyclopropyl-5-(3-((4-methyl-4H-1,2,4-triazol-3-yl)methyl)oxetan-3-yl)phenyl)-6-(((1-methylcyclobutyl)amino)methyl)-4-(trifluoromethyl)isoindolin-1-one]
IC50 (Cbl-b): 15 nM
IC50 (c-Cbl): 13 nM
(fold-selectivity) (c-Cbl): (0.83x)

Cn1cnnc1[C@H](F)C1(c2cccc(N3Cc4c(cccc4-c4ccccc4)C3=O)c2)COC1 [Compound 210, (R)-2-(3-(3-(fluoro(4-methyl-4H-1,2,4-triazol-3-yl)methyl)oxetan-3-yl)phenyl)-4-phenylisoindolin-1-one]
IC50 (Cbl-b): > 20000 nM
IC50 (c-Cbl): > 20000 nM
(fold-selectivity) (c-Cbl): 1.0x

COCCN1CCC(Nc2cc(C3(Cc4nncn4C)CCC3)cc(N3Cc4c(cc(CNC5(C)CCC5)cc4C(F)(F)F)C3=O)n2)CC1 [Compound 302, 2-(6-((1-(2-methoxyethyl)piperidin-4-yl)amino)-4-(1-((4-methyl-4H-1,2,4-triazol-3-yl)methyl)cyclobutyl)pyridin-2-yl)-6-(((1-methylcyclobutyl)amino)methyl)-4-(trifluoromethyl)isoindolin-1-one]
IC50 (Cbl-b): 590 nM
IC50 (c-Cbl): 660 nM
(fold-selectivity) (c-Cbl): (1.1x)

CCCc1cc(C2(Cc3nncn3C)CCC2)cc(N2Cc3c(cc(CNC4(C)CCC4)cc3C(F)(F)F)C2=O)n1 [Compound 343, 2-(4-(1-((4-methyl-4H-1,2,4-triazol-3-yl)methyl)cyclobutyl)-6-propylpyridin-2-yl)-6-(((1-methylcyclobutyl)amino)methyl)-4-(trifluoromethyl)isoindolin-1-one]
IC50 (Cbl-b): 13 nM
IC50 (c-Cbl): 9.5 nM
(fold-selectivity) (c-Cbl): (0.74x)

Cn1cnnc1CC1(c2cccc(N3Cc4c(cc(CN5CC(C)(O)C5)cc4C(F)(F)F)C3=O)c2)CC(F)(F)C1 [Compound 17, 2-(3-(3,3-difluoro-1-((4-methyl-4H-1,2,4-triazol-3-yl)methyl)cyclo-butyl)phenyl)-6-((3-hydroxy-3-methylazetidin-1-yl)methyl)-4-(trifluoromethyl)isoindolin-1-one]
IC50 (Cbl-b): 17 nM
IC50 (c-Cbl): 14 nM
(fold-selectivity) (c-Cbl): 0.85x

Cn1cnnc1CC1(c2cc(NCC3CC3)nc(N3Cc4c(cc(CNC5(C)CCC5)cc4C(F)(F)F)C3=O)c2)CCC1 [Compound 238, 2-(6-((cyclopropylmethyl)amino)-4-(1-((4-methyl-4H-1,2,4-triazol-3-yl)methyl)cyclobutyl)pyridin-2-yl)-6-(((1-methylcyclobutyl)amino)methyl)-4-(trifluoromethyl)-isoindolin-1-one]
IC50 (Cbl-b): 11 nM
IC50 (c-Cbl): 11 nM
(fold-selectivity) (c-Cbl): (1.0x)

Cn1cnnc1CC1(c2cc(NCC(F)(F)CO)nc(N3Cc4c(cc(CNC5(C)CCC5)cc4C(F)(F)F)C3=O)c2)CCC1 [Compound 317, 2-(6-((2,2-difluoro-3-hydroxypropyl)amino)-4-(1-((4-methyl-4H-1,2,4-triazol-3-yl)methyl)cyclobutyl)pyridin-2-yl)-6-(((1-methylcyclobutyl)amino)methyl)-4-(trifluoromethyl)isoindolin-1-one]
IC50 (Cbl-b): 22 nM
IC50 (c-Cbl): 27 nM
(fold-selectivity) (c-Cbl): (1.2x)

Cc1cccc2c1CN(c1cccc(C3([C@@H](F)c4nncn4C)COC3)c1)C2=O [Compound 208, (R)-2-(3-(3-(fluoro(4-methyl-4H-1,2,4-triazol-3-yl)methyl)oxetan-3-yl)phenyl)-4-methylisoindolin-1-one]
IC50 (Cbl-b): 1400 nM
IC50 (c-Cbl): 2100 nM
(fold-selectivity) (c-Cbl): 1.5x

Cn1cnnc1[C@H](F)C1(c2cccc(N3Cc4c(cc(CN5CC(O)(C6CC6)C5)cc4C(F)(F)F)C3=O)c2)COC1 [Compound 173, (R)-6-((3-cyclopropyl-3-hydroxyazetidin-1-yl)methyl)-2-(3-(3-(fluoro(4-methyl-4H-1,2,4-triazol-3-yl)methyl)oxetan-3-yl)phenyl)-4-(trifluoromethyl)isoindolin-1-one]
IC50 (Cbl-b): 63 nM
IC50 (c-Cbl): 83 nM
(fold-selectivity) (c-Cbl): 1.3x

Cn1cnnc1CC1(c2cccc(N3Cc4c(cc(C5CCCN5)cc4C(F)(F)F)C3=O)c2)COC1.O=CO (racemic) [Compound 11, 2-(3-(3-((4-methyl-4H-1,2,4-triazol-3-yl)methyl)oxetan-3-yl)phenyl)-6-(pyrrolidin-2-yl)-4-(trifluoromethyl)isoindolin-1-one formate]
IC50 (Cbl-b): 420 nM
IC50 (c-Cbl): 620 nM
(fold-selectivity) (c-Cbl): 1.5x

Cn1cnnc1CC1(c2cccc(N3Cc4c(cc(CNC5CC6(COC6)C5)cc4C(F)(F)F)C3=O)c2)CC(F)(F)C1 [Compound 366, 6-((2-oxaspiro[3.3]heptan-6-ylamino)methyl)-2-(3-(3,3-difluoro-1-((4-methyl-4H-1,2,4-triazol-3-yl)methyl)cyclobutyl)phenyl)-4-(trifluoromethyl)isoindolin-1-one]
IC50 (Cbl-b): 26 nM
IC50 (c-Cbl): 27 nM
(fold-selectivity) (c-Cbl): (1.0x)

Cn1cnnc1[C@H](F)C1(c2cccc(N3Cc4c(cc([C@@H](N)CC5CC5)cc4C(F)(F)F)C3=O)c2)COC1 [Compound 389, 6-((S)-1-amino-2-cyclopropylethyl)-2-(3-(3-((R)-fluoro(4-methyl-4H-1,2,4-triazol-3-yl)methyl)oxetan-3-yl)phenyl)-4-(trifluoromethyl)isoindolin-1-one]
IC50 (Cbl-b): 9.6 nM
IC50 (c-Cbl): 14 nM
(fold-selectivity) (c-Cbl): (1.4x)

Cn1cnnc1[C@@H](F)C1(c2cccc(N3Cc4c(cc(CN5CCCC5)cc4C(F)(F)F)C3=O)c2)CC(F)(F)C1 [Compound 396, (S)-2-(3-(3,3-difluoro-1-(fluoro(4-methyl-4H-1,2,4-triazol-3-yl)methyl)cyclobutyl)phenyl)-6-(pyrrolidin-1-ylmethyl)-4-(trifluoromethyl)isoindolin-1-one]
IC50 (Cbl-b): 120 nM
IC50 (c-Cbl): 150 nM
(fold-selectivity) (c-Cbl): (1.3x)

Cn1cnnc1[C@H](F)C1(c2cccc(N3Cc4c(Br)cc(CNC5(C)CCC5)cc4C3=O)c2)COC1 [Compound 471, (R)-4-bromo-2-(3-(3-(fluoro(4-methyl-4H-1,2,4-triazol-3-yl)methyl)oxetan-3-yl)phenyl)-6-(((1-methylcyclobutyl)amino)methyl) isoindolin-1-one]
IC50 (Cbl-b): 8.2 nM
IC50 (c-Cbl): 6.8 nM
(fold-selectivity) (c-Cbl): (0.83x)

Cn1cnnc1[C@@H](F)C1(c2cccc(N3Cc4c(cc(CN5CCC(F)(CO)CC5)cc4C(F)(F)F)C3=O)c2)COC1 [Compound 134, (S)-2-(3-(3-(fluoro(4-methyl-4H-1,2,4-triazol-3-yl)methyl)oxetan-3-yl)phenyl)-6-((4-fluoro-4-(hydroxymethyl)piperidin-1-yl)methyl)-4-(trifluoromethyl)isoindolin-1-one]
IC50 (Cbl-b): 210 nM
IC50 (c-Cbl): 670 nM
(fold-selectivity) (c-Cbl): 3.3x

Cn1cnnc1[C@@H](F)C1(c2cccc(N3Cc4c(cc(CC5CNC5)cc4C(F)(F)F)C3=O)c2)COC1 [Compound 58, (S)-6-(azetidin-3-ylmethyl)-2-(3-(3-(fluoro(4-methyl-4H-1,2,4-triazol-3-yl)methyl)oxetan-3-yl)phenyl)-4-(trifluoromethyl)isoindolin-1-one]
IC50 (Cbl-b): 200 nM
IC50 (c-Cbl): 360 nM
(fold-selectivity) (c-Cbl): 1.8x
